# According to PMC6917776, “Discovery of a chemical probe for PRDM9” (Nature Communications, 2019):
# Read-outs that look alike come from different tables or passages of the source.
# Assays:
# Format in all cases: biochemical
# [1] = biological target: T1, BCDIN3D (Homo sapiens, UniProt Q7Z5W3); test: Methyltransferase selectivity assay (SPA)
# T1 construct: purchased Structural Genomics Consortium (SGC Toronto) in-house methyltransferase panel
# T1 sequence (Q7Z5W3 1-292): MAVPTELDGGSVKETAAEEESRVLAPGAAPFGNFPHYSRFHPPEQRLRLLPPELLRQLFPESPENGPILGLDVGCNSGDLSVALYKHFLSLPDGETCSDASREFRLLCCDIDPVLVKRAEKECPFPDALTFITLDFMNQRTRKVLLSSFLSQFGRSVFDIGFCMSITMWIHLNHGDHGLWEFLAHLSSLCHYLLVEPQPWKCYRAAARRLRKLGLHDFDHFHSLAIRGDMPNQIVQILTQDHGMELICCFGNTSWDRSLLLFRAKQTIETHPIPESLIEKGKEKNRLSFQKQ
# Experimental: (§1) Selectivity against methyltransferases were determined as described previously. Details of the assays are described in the supplementary methods.
# (§2) Methyltransferase selectivity assay1
# (§3) The effect of chemical probes and negative controls on the methyltransferase activities of protein, DNA and RNA methyltransferases was tested by radiometric assays using 3H-SAM. For proteins such as MLL1 trimeric, MLL3 pentameric, EZH1 (PRC2) pentameric, and EZH2 (PRC2) trimeric complexes, as well as G9a, GLP, SUV39H1, SUV39H2, SUV420H1, SUV420H2, SETD2, SETD8, SETDB1, SETD7, PRMT1, PRMT3, PRMT4, PRMT5/ MEP50 complex, PRMT6, PRMT7, PRMT8, PRMT9, PRDM9, SMYD2, SMYD3, DNMT1, and BCDIN3D the incorporation of a tritium-labeled methyl group into biotinylated substrate was monitored using scintillation proximity assay (SPA). Briefly, a 10 µL reaction containing 3H-SAM and substrate at concentrations close to the apparent Km values for each enzyme (balanced conditions) was prepared. The reactions were quenched with 10 µL of 7.5 M guanidine hydrochloride; 180 µL of 20 mM Tris buffer (pH 8.0) were added, and the mixture was transferred to a 96-well FlashPlate and incubated for 1 h. The counts per minute (CPM) was measured on a TopCount plate reader. The CPM in the absence of compound or enzyme was defined as 100% activity and background (0%), respectively, for each dataset. For DNMT1, the double-stranded DNA substrate was prepared by annealing two complementary strands (biotinylated forward strand: B-[…] and reverse strand:
# (§4) ) that were synthesized by Eurofins MWG Operon
# (§5) For proteins which were tested with nucleosome as substrate such as DOT1L, NSD1, NSD2, NSD3, and ASH1L, or unbiotinylated Poly(2′-deoxyinosinic-2′-deoxycytidylic acid) (Cat# 81349-500UG, Sigma Aldrich) such as DNMT3A/3L, and DNMT3B/3L, a filter-based assay was used. In this assay, a trichloroacetic acid (TCA) protein precipitation protocol was employed. A 10 µL reaction mixture was incubated at 23°C for 1 h, followed by addition of 50 µL of 10% TCA. The mixture was transferred to filter plates (Millipore, Billerica, MA, USA) that were centrifuged at 2000 rpm (Allegra X-15R; Beckman Coulter, Brea, CA, USA) for 2 min. Samples were washed twice with 10% TCA and once with ethanol (180 µL), and centrifuged. After drying, 100 µL MicroScint-O (Perkin Elmer) was added to each well and the plates were centrifuged to remove the liquid. A 70 µL volume of MicroScint-O was added and the CPM was measured with a TopCount plate reader.
# [2] = biological target: T2, G9a (Homo sapiens, UniProt Q96KQ7); test: Methyltransferase selectivity assay (SPA)
# T2 construct: purchased Structural Genomics Consortium (SGC Toronto) in-house methyltransferase panel
# T2 sequence (Q96KQ7 1-1210): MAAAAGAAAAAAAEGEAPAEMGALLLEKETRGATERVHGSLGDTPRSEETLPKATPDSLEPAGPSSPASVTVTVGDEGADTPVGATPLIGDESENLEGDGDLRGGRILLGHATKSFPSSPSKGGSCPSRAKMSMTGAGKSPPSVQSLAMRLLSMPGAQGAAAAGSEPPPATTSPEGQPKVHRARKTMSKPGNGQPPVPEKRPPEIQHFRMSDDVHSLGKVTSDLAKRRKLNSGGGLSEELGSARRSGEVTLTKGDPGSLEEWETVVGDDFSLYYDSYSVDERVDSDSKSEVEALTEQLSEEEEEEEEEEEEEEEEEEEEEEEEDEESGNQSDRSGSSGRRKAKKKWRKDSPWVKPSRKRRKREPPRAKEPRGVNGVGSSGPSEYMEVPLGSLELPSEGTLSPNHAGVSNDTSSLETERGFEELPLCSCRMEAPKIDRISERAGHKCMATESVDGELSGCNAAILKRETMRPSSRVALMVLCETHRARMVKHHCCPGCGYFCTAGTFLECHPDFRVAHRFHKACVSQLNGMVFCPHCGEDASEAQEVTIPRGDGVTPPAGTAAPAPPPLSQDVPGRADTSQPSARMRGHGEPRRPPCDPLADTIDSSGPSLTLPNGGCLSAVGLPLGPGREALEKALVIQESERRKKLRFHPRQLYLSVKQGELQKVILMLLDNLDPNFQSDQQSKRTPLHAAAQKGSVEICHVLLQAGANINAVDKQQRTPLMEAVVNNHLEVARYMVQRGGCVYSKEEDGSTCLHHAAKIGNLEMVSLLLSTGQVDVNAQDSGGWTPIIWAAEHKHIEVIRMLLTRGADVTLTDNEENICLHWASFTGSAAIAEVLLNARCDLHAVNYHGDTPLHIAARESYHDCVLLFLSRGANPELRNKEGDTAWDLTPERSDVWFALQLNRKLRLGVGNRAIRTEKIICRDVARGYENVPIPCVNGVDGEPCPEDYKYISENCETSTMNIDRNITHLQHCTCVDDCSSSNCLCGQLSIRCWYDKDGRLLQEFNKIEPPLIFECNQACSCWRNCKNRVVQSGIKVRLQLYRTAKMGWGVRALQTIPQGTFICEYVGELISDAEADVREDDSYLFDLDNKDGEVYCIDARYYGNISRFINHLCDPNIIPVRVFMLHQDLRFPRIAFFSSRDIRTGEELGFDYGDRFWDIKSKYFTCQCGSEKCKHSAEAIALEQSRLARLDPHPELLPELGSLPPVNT
# Experimental: as §1, §2, §3, §4, §5
# [3] = biological target: T3, DNMT3A/3L (Homo sapiens, UniProt Q9Y6K1); test: Methyltransferase selectivity assay (filter-based)
# T3 construct: purchased Structural Genomics Consortium (SGC Toronto) in-house methyltransferase panel
# Experimental: as §1, §2
# The effect of chemical probes and negative controls on the methyltransferase activities of protein, DNA and RNA methyltransferases was tested by radiometric assays using 3H-SAM. […]
# Briefly, a 10 µL reaction containing 3H- […]
# The CPM in the absence of compound or enzyme was defined as 100% activity and background (0%), respectively, for each dataset. […]
# as §5
# [4] = 1µM compound, Exp1, Exp2, read-out: Activity %
# [5] = 10µM compound, Exp1, Exp2, 10 µM
# [6] = 10µM compound, Exp1, Exp2, read-out: Activity %
# T3 sequence (Q9Y6K1 whole entry, looked up): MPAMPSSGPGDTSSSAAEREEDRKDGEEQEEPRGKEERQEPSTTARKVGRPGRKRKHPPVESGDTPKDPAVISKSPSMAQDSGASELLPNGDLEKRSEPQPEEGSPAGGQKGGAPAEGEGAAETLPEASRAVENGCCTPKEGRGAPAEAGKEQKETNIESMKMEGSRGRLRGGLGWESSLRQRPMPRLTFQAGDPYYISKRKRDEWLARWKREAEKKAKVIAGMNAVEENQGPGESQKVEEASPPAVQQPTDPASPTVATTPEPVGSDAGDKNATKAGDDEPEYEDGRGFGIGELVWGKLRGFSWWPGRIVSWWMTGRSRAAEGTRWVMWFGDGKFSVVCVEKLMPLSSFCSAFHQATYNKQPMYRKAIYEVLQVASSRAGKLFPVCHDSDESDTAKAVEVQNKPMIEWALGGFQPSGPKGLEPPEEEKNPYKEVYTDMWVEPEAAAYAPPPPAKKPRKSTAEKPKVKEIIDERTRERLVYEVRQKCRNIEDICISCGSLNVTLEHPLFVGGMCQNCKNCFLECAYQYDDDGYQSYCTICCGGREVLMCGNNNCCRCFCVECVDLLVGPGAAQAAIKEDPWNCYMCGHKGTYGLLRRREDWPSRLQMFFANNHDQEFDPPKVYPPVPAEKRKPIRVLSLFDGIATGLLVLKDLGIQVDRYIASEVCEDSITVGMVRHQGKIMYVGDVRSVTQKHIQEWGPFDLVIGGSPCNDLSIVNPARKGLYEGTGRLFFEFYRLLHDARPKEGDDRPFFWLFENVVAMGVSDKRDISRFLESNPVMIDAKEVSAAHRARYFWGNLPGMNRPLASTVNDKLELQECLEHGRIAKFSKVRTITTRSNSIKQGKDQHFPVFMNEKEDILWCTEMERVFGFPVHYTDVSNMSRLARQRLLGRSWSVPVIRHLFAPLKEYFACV
# T3 sequence (Q9UJW3 whole entry partner): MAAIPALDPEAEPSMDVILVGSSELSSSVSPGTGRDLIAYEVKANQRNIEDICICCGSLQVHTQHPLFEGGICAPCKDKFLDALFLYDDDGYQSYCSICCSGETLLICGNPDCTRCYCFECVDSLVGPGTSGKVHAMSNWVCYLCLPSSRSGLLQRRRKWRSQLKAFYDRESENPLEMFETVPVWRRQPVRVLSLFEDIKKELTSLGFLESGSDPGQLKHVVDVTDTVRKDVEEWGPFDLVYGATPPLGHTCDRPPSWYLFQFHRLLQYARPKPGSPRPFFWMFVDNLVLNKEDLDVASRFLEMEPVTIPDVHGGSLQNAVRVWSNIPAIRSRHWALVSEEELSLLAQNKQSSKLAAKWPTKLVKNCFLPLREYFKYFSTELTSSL
SMILES,"Activity % ([1]; 1µM compound, Exp1, Exp2, 1 µM) [%]","activity at 1 µM [1, 4] [%]","Activity % [1, 5] [%]","activity at 10 µM [1, 6] [%]","Activity % ([2]; 1µM compound, Exp1, Exp2, 1 µM) [%]","activity at 1 µM [2, 4] [%]","activity at 10 µM [2, 6] [%]","Activity % ([3]; 1µM compound, Exp1, Exp2, 1 µM) [%]","activity at 1 µM [3, 4] [%]","activity at 10 µM [3, 6] [%]","activity at 1 µM ([1]; 1µM compound, Exp1, Exp2) [%]","activity at 10 µM ([1]; 10µM compound, Exp1, Exp2) [%]","activity at 1 µM ([2]; 1µM compound, Exp1, Exp2) [%]","activity at 10 µM ([2]; 10µM compound, Exp1, Exp2) [%]","Activity % [2, 5] [%]","activity at 1 µM ([3]; 1µM compound, Exp1, Exp2) [%]","activity at 10 µM ([3]; 10µM compound, Exp1, Exp2) [%]","Activity % [3, 5] [%]"
COc1cc(OC)cc(-c2noc(N3CCN(C)C4(CCN(c5ccnc(C)c5)CC4)C3)n2)c1 [MRK-740],100,101,95,104,89,93,94,107,108,100,,,,,,,,
COc1cc(OC)cc(-c2noc(N3CCN(C)C4(CCN(c5ccccc5)CC4)C3)n2)c1 [MRK-740 -NC],101,,94,,100,,,91,,,103,100,101,95,93,100,96,87
